Measured values from paper PMC11434980, “Deciphering Chemical Rules for Drug Penetration into Strongyloides” (Pharmaceutics, 2024).
“Also recorded” adds a separate entry of the source.

What follows are compounds tested on parasitic females of S. venezuelensis (assay: Staining of adult females by the dyes). Conditions: 10 µM.
Type: cell-based, Strongyloides venezuelensis

Row | Compound | Staining of parasitic females | staining of adult females
1 | CC[N+](C)(CC)CCC[n+]1c(-c2ccccc2)c2cc(N)ccc2c2ccc(N)cc21.[I-].[I-] [Propidium Iodide] | Yes | living worms were not strongly stained
2 | Cc1cc(C(=C2C=CC(=N)C=C2)c2ccc(N)cc2)ccc1N [Fuchsine] | No | did not stain
3 | Brilliant Cresyl Blue | Yes | stained adult females after 24 h in some localized structures

Same assay, conditions: 10 µM, time at which staining of females was seen

Row | Compound | Staining (Time)
4 | CC[N+](C)(CC)CCC[n+]1c(-c2ccccc2)c2cc(N)ccc2c2ccc(N)cc21.[I-].[I-] [Propidium Iodide] | 72 h
5 | Brilliant Cresyl Blue | 24 h

Each compound was assayed on S. venezuelensis L3s (assay: microbe, parasite or virus in culture). Conditions: L3S, 72 h, read-out: IC50 72 h (L3).
Procedure: (§1) Baerman-obtained S. venezuelensis L3s were rinsed twice with distilled water and counted, and 100 to 150 larvae were placed per well in 96-well flat-bottom culture plates. Larvae were incubated at 28 °C for 30 min to allow adaptation and treated with compounds in the range of 0.5–40 µM for 72 h at 28 °C in a humid atmosphere. Mortality was assessed as the lack of any movement detected during 1 min of observation under an inverted microscope (40×), at 24, 48, and 72 h after treatment. The ability to stain the larvae was pointed out when observed; at 72 h, larvae were collected and washed two times with distilled water and placed in a new well to remove the background color and photographed. Pictures were also taken at 24 and 48 h without cleaning the larvae so as not to interfere with the 72 h readout of the experiment. […] All experiments were conducted in triplicate and at least three different times. The antiparasitic activity of the compounds was expressed as the concentration that inhibited the motility of half of the larvae (immobilization concentration 50, IC50).
A total of 15 dyes were tested against S. venezuelensis L3s at a 20 µM concentration. The activity was determined by the number of larvae lacking motility relative to the total number in the well after 1 min of light excitation at 24, 48, and 72 h after treatment.

Row | Compound | IC50
6 | Cc1ccc2nc(NC(=O)c3ccc(N4CCN(C)CC4)nc3)sc2c1 [Compound 22, N-(6-methylbenzo[d]thiazol-2-yl)-6-(4-methylpiperazin-1-yl)nicotinamide] | 8.6 ± 2.3 µM
7 | Cc1ccc2nc(NC(=O)c3cccnc3)sc2c1 [Compound 20, N-(6-methylbenzo[d]thiazol-2-yl)nicotinamide] | > 20 µM

Same assay, conditions: L3S, 72 h, read-out: L3 mortality rate

Row | Compound | mortality at 20 µM
8 | Cc1ccc2nc(NC(=O)c3ccc(N4CCN(C)CC4)nc3)sc2c1 [Compound 22, N-(6-methylbenzo[d]thiazol-2-yl)-6-(4-methylpiperazin-1-yl)nicotinamide] | 100%

Same assay, conditions: L3 motility, 72 h of treatment

Row | Compound | significant activity against the L3s
9 | CN(C)c1ccc(N=Nc2ccc(S(=O)(=O)[O-])cc2)cc1.[Na+] [Methyl Orange] | did not show significant activity
10 | Nc1c(/N=N/c2ccc(-c3ccc(/N=N/c4cc(S(=O)(=O)O)c5ccccc5c4N)cc3)cc2)cc(S(=O)(=O)O)c2ccccc12 [Congo Red] | did not show significant activity
11 | Oc1ccc2ccccc2c1N=Nc1ccc(N=Nc2ccccc2)cc1 [Sudan III] | did not show significant activity

Same assay, conditions: L3s, 20 µM, 72 h

Row | Compound | Screening 20 µM 72 h | Activity against L3 @20 µM 72 h
12 | CN(C)c1ccc(N=Nc2ccc(S(=O)(=O)[O-])cc2)cc1.[Na+] [Methyl Orange] | No | 
13 | CC[N+](C)(CC)CCC[n+]1c(-c2ccccc2)c2cc(N)ccc2c2ccc(N)cc21.[I-].[I-] [Propidium Iodide] | Active | 
14 | Nc1c(/N=N/c2ccc(-c3ccc(/N=N/c4cc(S(=O)(=O)O)c5ccccc5c4N)cc3)cc2)cc(S(=O)(=O)O)c2ccccc12 [Congo Red] | No | 
15 | Oc1ccc2ccccc2c1N=Nc1ccc(N=Nc2ccccc2)cc1 [Sudan III] | No | 
16 | Cc1ccc2nc(NC(=O)c3ccc(N4CCN(C)CC4)nc3)sc2c1 [Compound 22, N-(6-methylbenzo[d]thiazol-2-yl)-6-(4-methylpiperazin-1-yl)nicotinamide] |  | Yes
17 | Cc1cc(C(=C2C=CC(=N)C=C2)c2ccc(N)cc2)ccc1N [Fuchsine] | Active | 
18 | Brilliant Cresyl Blue | Active | 
19 | Cc1ccc2nc(NC(=O)c3cccnc3)sc2c1 [Compound 20, N-(6-methylbenzo[d]thiazol-2-yl)nicotinamide] |  | did not show any activity and no in vitro activity and No

Same assay, conditions: read-out: IC50 24 h (immobilization concentration 50 of cultured L3s); L3s, 24 h

Row | Compound | IC50
20 | CC[N+](C)(CC)CCC[n+]1c(-c2ccccc2)c2cc(N)ccc2c2ccc(N)cc21.[I-].[I-] [Propidium Iodide] | 14.5 ± 4.6 µM
21 | Cc1cc(C(=C2C=CC(=N)C=C2)c2ccc(N)cc2)ccc1N [Fuchsine] | 7.4 ± 1.3 µM
22 | Brilliant Cresyl Blue | 14 ± 4.1 µM

Same assay, conditions: read-out: IC50 48 h (immobilization concentration 50 of cultured L3s); L3s, 48 h

Row | Compound | IC50
23 | CC[N+](C)(CC)CCC[n+]1c(-c2ccccc2)c2cc(N)ccc2c2ccc(N)cc21.[I-].[I-] [Propidium Iodide] | 9.8 ± 3.2 µM
24 | Cc1cc(C(=C2C=CC(=N)C=C2)c2ccc(N)cc2)ccc1N [Fuchsine] | 6.8 ± 0.9 µM
25 | Brilliant Cresyl Blue | 9.6 ± 0.6 µM

Same assay, conditions: read-out: IC50 72 h (immobilization concentration 50 of cultured L3s); L3s, 72 h

Row | Compound | IC50
26 | CN(C)c1ccc(N=Nc2ccc(S(=O)(=O)[O-])cc2)cc1.[Na+] [Methyl Orange] | > 40 µM
27 | CC[N+](C)(CC)CCC[n+]1c(-c2ccccc2)c2cc(N)ccc2c2ccc(N)cc21.[I-].[I-] [Propidium Iodide] | 4.3 ± 0.6 µM
28 | Oc1ccc2ccccc2c1N=Nc1ccc(N=Nc2ccccc2)cc1 [Sudan III] | > 40 µM
29 | Cc1cc(C(=C2C=CC(=N)C=C2)c2ccc(N)cc2)ccc1N [Fuchsine] | 3.2 ± 0.4 µM
30 | Brilliant Cresyl Blue | 6.8 ± 0.7 µM

The compounds below were run on HeLa (human cervical cancer) cell line (assay: Cytotoxicity, MTT method). Conditions: HeLa cells, 72 h, MTT; read-out: HeLa IC50 (antiproliferative activity / cytotoxicity).
Type: cell-based
Procedure: A cytotoxicity test was performed using the HeLa (human cervical cancer) cell line according to the MTT method. Cells were from the ATCC (Manassas, VA, USA). They were cultured at 37 °C in sub-confluent conditions under a 95% humidified atmosphere and 5% CO2 in Dulbecco’s Modified Eagle Medium (DMEM) (Gibco, Whaltman, MA, USA) supplemented with 10% heat-inactivated FBS, 2 mM L-glutamine, 100 U/mL penicillin, and 100 µg/mL streptomycin. […] The antiproliferative activity was measured in triplicate after 72 h using the MTT (3-(4,5-dimethylthiazol-2-yl)-2,5-diphenyltetrazolium bromide) Cell Proliferation Kit (Roche, Boston, MA, USA), following the manufacturer’s specifications. […] The selectivity index (SI = HeLa IC50/L3 IC50) for each compound was calculated to compare the antiparasitic activity with its respective human cell cytotoxicity.

Row | Compound | IC50
31 | Cc1cc(C(=C2C=CC(=N)C=C2)c2ccc(N)cc2)ccc1N [Fuchsine] | 1000 nM
32 | Brilliant Cresyl Blue | > 250000 nM

Same assay, conditions: HeLa, MTT, 10 µM

Row | Compound | antiproliferative activity against HeLa cells at 10 µM
33 | Cc1ccc2nc(NC(=O)c3ccc(N4CCN(C)CC4)nc3)sc2c1 [Compound 22, N-(6-methylbenzo[d]thiazol-2-yl)-6-(4-methylpiperazin-1-yl)nicotinamide] | no antiproliferative activity
34 | Cc1ccc2nc(NC(=O)c3cccnc3)sc2c1 [Compound 20, N-(6-methylbenzo[d]thiazol-2-yl)nicotinamide] | no antiproliferative activity

The compounds below were run on parasitic females of S. venezuelensis (assay: In vitro activity against adult females (movement categories)). Conditions: 10 µM, 50–70 worms per well.
Type: cell-based, Strongyloides venezuelensis
Procedure: Seven to nine days after infection, the mice or rats were euthanized and the small intestine was removed, sliced longitudinally, minced, and placed in a sedimentation cup wrapped in 8 layers of gauze in phosphate-buffered solution (PBS) for two hours at 37 °C. Parasitic females were collected from the sediment and washed twice with saline solution (NaCl 0.15 mol/L) and twice with Roswell Park Memorial Institute 1640 (RPMI 1640) (Gibco, Whaltman, MA, USA) supplemented with 10% heat-inactivated FBS, 100 µg/mL streptomycin, and 100 U/mL penicillin (Gibco, Whaltman, MA, USA) to avoid contamination during the in vitro assays. After collection, females were placed in 96-well plates with supplemented RPMI medium and kept at 37 °C. We tested three different female population densities to explore the effects on the measured activity: 1–3 females, 10–15 females, and 50–70 females per well. At 24 h after plating, the compounds were applied at 10 µM and the anti-parasitic activity was evaluated at 1, 24, 48, and 72 h after treatment based on movement for 30 s observation periods under the microscope (40×). […] All experiments were conducted in duplicate and at least three different times. […]

Row | Compound | effect on adult females
35 | CC[N+](C)(CC)CCC[n+]1c(-c2ccccc2)c2cc(N)ccc2c2ccc(N)cc21.[I-].[I-] [Propidium Iodide] | significantly affected
36 | Brilliant Cresyl Blue | significantly affected

Same assay, conditions: 10 µM, 1 h, 50–70 worms per well

Row | Compound | Activity against parasitic females 1 h
37 | CC[N+](C)(CC)CCC[n+]1c(-c2ccccc2)c2cc(N)ccc2c2ccc(N)cc21.[I-].[I-] [Propidium Iodide] | Slightly affected
38 | Cc1cc(C(=C2C=CC(=N)C=C2)c2ccc(N)cc2)ccc1N [Fuchsine] | Healthy
39 | Brilliant Cresyl Blue | Healthy

Same assay, conditions: 10 µM, 24 h, 50–70 worms per well

Row | Compound | Activity against parasitic females 24 h
40 | CC[N+](C)(CC)CCC[n+]1c(-c2ccccc2)c2cc(N)ccc2c2ccc(N)cc21.[I-].[I-] [Propidium Iodide] | Slightly affected
41 | Cc1cc(C(=C2C=CC(=N)C=C2)c2ccc(N)cc2)ccc1N [Fuchsine] | Healthy
42 | Brilliant Cresyl Blue | Slightly affected

Same assay, conditions: 10 µM, 48 h, 50–70 worms per well

Row | Compound | Activity against parasitic females 48 h
43 | CC[N+](C)(CC)CCC[n+]1c(-c2ccccc2)c2cc(N)ccc2c2ccc(N)cc21.[I-].[I-] [Propidium Iodide] | Slightly affected
44 | Cc1cc(C(=C2C=CC(=N)C=C2)c2ccc(N)cc2)ccc1N [Fuchsine] | Healthy
45 | Brilliant Cresyl Blue | Affected

Same assay, conditions: 10 µM, 72 h, 50–70 worms per well

Row | Compound | Activity against parasitic females 72 h
46 | CC[N+](C)(CC)CCC[n+]1c(-c2ccccc2)c2cc(N)ccc2c2ccc(N)cc21.[I-].[I-] [Propidium Iodide] | Affected/Some deaths
47 | Cc1cc(C(=C2C=CC(=N)C=C2)c2ccc(N)cc2)ccc1N [Fuchsine] | Healthy
48 | Brilliant Cresyl Blue | Affected

Same assay, conditions: adult females, 72 h

Row | Compound | Activity against Adults @10 µM 72 h
49 | Cc1ccc2nc(NC(=O)c3ccc(N4CCN(C)CC4)nc3)sc2c1 [Compound 22, N-(6-methylbenzo[d]thiazol-2-yl)-6-(4-methylpiperazin-1-yl)nicotinamide] | slightly affecting but not killing; also recorded: Slightly affected
50 | Cc1ccc2nc(NC(=O)c3cccnc3)sc2c1 [Compound 20, N-(6-methylbenzo[d]thiazol-2-yl)nicotinamide] | did not show any potency; also recorded: Healthy

These compounds were tested on S. venezuelensis L3s (assay: Staining (uptake) of L3 larvae by the dyes). Conditions: not given.
Type: cell-based, Strongyloides venezuelensis
Procedure: as §1

Row | Compound | Staining 72 h (L3 staining ability)
51 | CN(C)c1ccc(N=Nc2ccc(S(=O)(=O)[O-])cc2)cc1.[Na+] [Methyl Orange] | No
52 | CC[N+](C)(CC)CCC[n+]1c(-c2ccccc2)c2cc(N)ccc2c2ccc(N)cc21.[I-].[I-] [Propidium Iodide] | Yes
53 | Nc1c(/N=N/c2ccc(-c3ccc(/N=N/c4cc(S(=O)(=O)O)c5ccccc5c4N)cc3)cc2)cc(S(=O)(=O)O)c2ccccc12 [Congo Red] | No
54 | Oc1ccc2ccccc2c1N=Nc1ccc(N=Nc2ccccc2)cc1 [Sudan III] | No
55 | Cc1cc(C(=C2C=CC(=N)C=C2)c2ccc(N)cc2)ccc1N [Fuchsine] | Yes
56 | Brilliant Cresyl Blue | Yes

Same assay, conditions: 72 h

Row | Compound | lowest staining concentration (Conc)
57 | CC[N+](C)(CC)CCC[n+]1c(-c2ccccc2)c2cc(N)ccc2c2ccc(N)cc21.[I-].[I-] [Propidium Iodide] | 3 µM
58 | Cc1cc(C(=C2C=CC(=N)C=C2)c2ccc(N)cc2)ccc1N [Fuchsine] | 2 µM
59 | Brilliant Cresyl Blue | 2.5 µM
